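96-well plates; 48 h exposure; 5 concentrations. Endpoints by linear interpolation between flanking doses. Not reached: highest tested concentration assigned. TGI: concentration producing complete growth inhibition.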
Legend:
Assay in all cases: NCI tumour cell line growth inhibition, 48 h
[1] = test system: HS 578T breast
[2] = test system: BT-549 breast
[3] = test system: EKVX NSCLC
[4] = test system: SK-MEL-5 melanoma
[5] = test system: SR leukemia
[6] = test system: UACC-62 melanoma
[7] = test system: KM12 colon
[8] = test system: SNB-19 CNS
[9] = test system: CAKI-1 renal
[10] = test system: HOP-62 NSCLC
[11] = test system: HCC-2998 colon
[12] = test system: SF-295 CNS
[13] = test system: TK-10 renal
[14] = test system: OVCAR-8 ovarian
[15] = test system: HT29 colon
[16] = test system: SK-OV-3 ovarian
[17] = test system: M14 melanoma
[18] = test system: HCT-116 colon
[19] = test system: UO-31 renal
[20] = test system: NCI-H522 lung
[21] = test system: MALME-3M melanoma
[22] = test system: IGROV1 ovarian
[23] = test system: HOP-92 NSCLC
[24] = test system: NCI-H226 lung
[25] = test system: RPMI-8226 leukemia
[26] = test system: SK-MEL-2 melanoma
[27] = test system: LOX IMVI melanoma
[28] = test system: A498 renal
[29] = test system: MDA-MB-435
[30] = test system: MDA-MB-231 breast
[31] = test system: MOLT-4 leukemia
[32] = test system: U251 CNS
[33] = test system: OVCAR-3 ovarian
[34] = test system: T-47D breast
[35] = test system: SW-620 colon
[36] = test system: OVCAR-4 ovarian
[37] = test system: UACC-257 melanoma
[38] = test system: MDA-N
[39] = test system: SF-268 CNS
[40] = test system: A549 NSCLC
[41] = test system: CCRF-CEM leukemia
[42] = test system: 786-0 renal
[43] = test system: K-562 leukemia
[44] = test system: RXF 393 renal
[45] = test system: SF-539 CNS
[46] = test system: NCI/ADR-RES ovarian
[47] = test system: HCT-15 colon
[48] = test system: NCI-H23 lung
[49] = test system: PC-3 prostate
[50] = test system: OVCAR-5 ovarian
[51] = test system: NCI-H460 lung
[52] = test system: MCF7 breast
[53] = test system: COLO 205 colon
[54] = test system: ACHN renal
[55] = test system: SN12C renal
[56] = test system: SK-MEL-28 melanoma
[57] = test system: HL-60(TB) leukemia
[58] = test system: SNB-75 CNS

Compound: O=C1C2CC=CCC2C(=O)N1n1c(-c2ccccc2)n[nH]c1=O (configuration not stated)
- TGI [1]: > 100 µM
- TGI [2]: > 100 µM
- TGI [3]: > 100 µM
- TGI [4]: > 100 µM
- TGI [5]: > 100 µM
- TGI [6]: > 100 µM
- TGI [7]: > 100 µM
- TGI [8]: > 100 µM
- TGI [9]: > 100 µM
- TGI [10]: > 100 µM
- TGI [11]: > 100 µM
- TGI [12]: > 100 µM
- TGI [13]: > 100 µM
- TGI [14]: > 100 µM
- TGI [15]: > 100 µM
- TGI [16]: > 100 µM
- TGI [17]: > 100 µM
- TGI [18]: > 100 µM
- TGI [19]: > 100 µM
- TGI [20]: > 100 µM
- TGI [21]: > 100 µM
- TGI [22]: > 100 µM
- TGI [23]: > 100 µM
- TGI [24]: > 100 µM
- TGI [25]: > 100 µM
- TGI [26]: > 100 µM
- TGI [27]: > 100 µM
- TGI [28]: > 100 µM
- TGI [29]: > 100 µM
- TGI [30]: > 100 µM
- TGI [31]: > 100 µM
- TGI [32]: > 100 µM
- TGI [33]: > 100 µM
- TGI [34]: > 100 µM
- TGI [35]: > 100 µM
- TGI [36]: > 100 µM
- TGI [37]: > 100 µM
- TGI [38]: > 100 µM
- TGI [39]: > 100 µM
- TGI [40]: > 100 µM
- TGI [41]: > 100 µM
- TGI [42]: > 100 µM
- TGI [43]: > 100 µM
- TGI [44]: > 100 µM
- TGI [45]: > 100 µM
- TGI [46]: > 100 µM
- TGI [47]: > 100 µM
- TGI [48]: > 100 µM
- TGI [49]: > 100 µM
- TGI [50]: > 100 µM
- TGI [51]: > 100 µM
- TGI [52]: > 100 µM
- TGI [53]: > 100 µM
- TGI [54]: > 100 µM
- TGI [55]: > 100 µM

Compound: Nc1c2c(nc3ccccc13)CCCCCC2
- TGI [1]: > 100 µM
- TGI [2]: > 100 µM
- TGI [4]: 31.3 µM
- TGI [5]: 38 µM
- TGI [6]: 33.7 µM
- TGI [11]: 27.4 µM
- TGI [56]: 30 µM
- TGI [13]: 35.1 µM
- TGI [14]: > 100 µM
- TGI [57]: 31.6 µM
- TGI [18]: 64.1 µM
- TGI [20]: 56.3 µM
- TGI [21]: 32.6 µM
- TGI [22]: > 100 µM
- TGI [23]: 32.1 µM
- TGI [24]: > 100 µM
- TGI [25]: 43.8 µM
- TGI [26]: 29.2 µM
- TGI [27]: 31.8 µM
- TGI [28]: 74 µM
- TGI [30]: 42.5 µM
- TGI [31]: 85 µM
- TGI [32]: 80.2 µM
- TGI [35]: 50.1 µM
- TGI [37]: 31.1 µM
- TGI [38]: 30.4 µM
- TGI [39]: > 100 µM
- TGI [41]: 52.4 µM
- TGI [42]: 30 µM
- TGI [43]: 69 µM
- TGI [45]: 32.3 µM
- TGI [46]: > 100 µM
- TGI [47]: > 100 µM
- TGI [48]: > 100 µM
- TGI [49]: > 100 µM
- TGI [51]: 38.9 µM
- TGI [52]: > 100 µM
- TGI [53]: 30.6 µM
- TGI [54]: 86.3 µM
- TGI [55]: > 100 µM

Compound: NCCCN(CCCCN(CCCN)Cc1ccc2ccccc2c1)Cc1ccc2ccccc2c1
- TGI [1]: 3.06 µM
- TGI [2]: 3.89 µM
- TGI [3]: 3.37 µM
- TGI [7]: 3.32 µM
- TGI [8]: 2.86 µM
- TGI [9]: 3.15 µM
- TGI [11]: 9.37 µM
- TGI [12]: 3.7 µM
- TGI [13]: 5.05 µM
- TGI [15]: 3.11 µM
- TGI [16]: 3.39 µM
- TGI [57]: > 100 µM
- TGI [17]: 3.63 µM
- TGI [19]: 6.1 µM
- TGI [21]: 3.39 µM
- TGI [22]: 3.3 µM
- TGI [23]: 5.75 µM
- TGI [25]: 6.88 µM
- TGI [28]: 5.06 µM
- TGI [29]: 4.27 µM
- TGI [30]: 11.8 µM
- TGI [31]: 4.74 µM
- TGI [34]: 5.03 µM
- TGI [36]: 4.09 µM
- TGI [58]: 3.89 µM
- TGI [38]: 3.3 µM
- TGI [39]: 2.57 µM
- TGI [40]: 3.2 µM
- TGI [41]: > 100 µM
- TGI [43]: > 100 µM
- TGI [46]: 54.3 µM
- TGI [47]: 13.1 µM
- TGI [48]: 3.34 µM
- TGI [50]: 3.44 µM
- TGI [51]: 3.43 µM
- TGI [53]: 5.22 µM
- TGI [54]: 3.3 µM
- TGI [55]: 3.08 µM

Compound: O=C(Cn1c2c(c3ccccc31)CCCC2)NC1CCCCC1
- TGI [1]: > 100 µM
- TGI [2]: > 100 µM
- TGI [3]: > 100 µM
- TGI [4]: > 100 µM
- TGI [6]: > 100 µM
- TGI [8]: > 100 µM
- TGI [9]: > 100 µM
- TGI [10]: > 100 µM
- TGI [11]: > 100 µM
- TGI [56]: > 100 µM
- TGI [12]: > 100 µM
- TGI [13]: > 100 µM
- TGI [14]: > 100 µM
- TGI [15]: > 100 µM
- TGI [16]: > 100 µM
- TGI [57]: > 100 µM
- TGI [17]: > 100 µM
- TGI [18]: > 100 µM
- TGI [19]: > 100 µM
- TGI [21]: > 100 µM
- TGI [22]: > 100 µM
- TGI [25]: > 100 µM
- TGI [26]: > 100 µM
- TGI [27]: > 100 µM
- TGI [28]: > 100 µM
- TGI [29]: > 100 µM
- TGI [33]: > 100 µM
- TGI [35]: > 100 µM
- TGI [36]: > 100 µM
- TGI [37]: > 100 µM
- TGI [38]: > 100 µM
- TGI [39]: > 100 µM
- TGI [40]: > 100 µM
- TGI [41]: > 100 µM
- TGI [42]: > 100 µM
- TGI [43]: > 100 µM
- TGI [45]: > 100 µM
- TGI [46]: > 100 µM
- TGI [47]: > 100 µM
- TGI [48]: > 100 µM
- TGI [49]: > 100 µM
- TGI [50]: > 100 µM
- TGI [51]: > 100 µM
- TGI [52]: > 100 µM
- TGI [53]: > 100 µM
- TGI [54]: > 100 µM
- TGI [55]: > 100 µM

Compound: COc1ccc(-c2c(N)n(-c3nc4ccccc4s3)c(=O)c3cc([N+](=O)[O-])ccc23)cc1
- TGI [1]: 37.3 µM
- TGI [2]: > 100 µM
- TGI [3]: 44.6 µM
- TGI [5]: > 100 µM
- TGI [6]: > 100 µM
- TGI [7]: > 100 µM
- TGI [8]: > 100 µM
- TGI [9]: 48.5 µM
- TGI [10]: 27 µM
- TGI [56]: > 100 µM
- TGI [12]: 97.1 µM
- TGI [13]: > 100 µM
- TGI [14]: 23.2 µM
- TGI [15]: > 100 µM
- TGI [16]: 33 µM
- TGI [57]: > 100 µM
- TGI [17]: 47.6 µM
- TGI [18]: > 100 µM
- TGI [19]: 46.7 µM
- TGI [20]: 23.5 µM
- TGI [21]: 93.7 µM
- TGI [23]: > 100 µM
- TGI [24]: > 100 µM
- TGI [25]: > 100 µM
- TGI [26]: > 100 µM
- TGI [27]: 48.3 µM
- TGI [28]: > 100 µM
- TGI [29]: > 100 µM
- TGI [30]: 48.7 µM
- TGI [31]: 49.2 µM
- TGI [32]: 35.2 µM
- TGI [33]: 35.4 µM
- TGI [35]: > 100 µM
- TGI [36]: 68.4 µM
- TGI [58]: 24.7 µM
- TGI [37]: > 100 µM
- TGI [38]: > 100 µM
- TGI [39]: 56.6 µM
- TGI [40]: 23.3 µM
- TGI [41]: > 100 µM
- TGI [42]: 16.2 µM
- TGI [43]: > 100 µM
- TGI [44]: 30.9 µM
- TGI [45]: 19.6 µM
- TGI [46]: 78.1 µM
- TGI [47]: > 100 µM
- TGI [48]: 45.2 µM
- TGI [49]: > 100 µM
- TGI [50]: 56.7 µM
- TGI [51]: 32.5 µM
- TGI [52]: > 100 µM
- TGI [54]: 69.9 µM

From PubChem BioAssay (NCI)
